The record followed here is ChEMBL document CHEMBL1201862, “PubChem BioAssay data set” (2004).

Among the test systems are 786-0; ACHN; COLO 205; HCT-15; HOP-62; LOX IMVI; LXFL 529; NCI-H226; OVCAR-8; RPMI-8226; SNB-19; SR; U-251; UACC-257; UACC-62; UO-31; BT-549; MCF7; NCI/ADR-RES; T47D.
Common to all, as to assay: NCI anticancer screen, dose series, 48 h

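Dose response: 5 concentrations. Exposure: 48 h. Format: 96-well plates. Endpoint: linear interpolation; highest concentration if not reached. GI50: concentration for 50% inhibition of growth.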 The source made the active and inactive calls. Rule as the data show it: active = GI50 up to about 1.1 µM and inactive = higher. A value given as a limit tells only on which side of the number the result lay.

As for `OC(c1ccccc1)(c1ccccc1)c1ccncc1`, the GI50 was 66.1 µM (inactive) with 786-0; > 100 µM (inactive) in the test on ACHN; > 100 µM (inactive) in the test on COLO 205; greater than 100 µM with HCT-15; > 100 µM (inactive) with HOP-62; > 100 µM (inactive) in the test on LOX IMVI. Also, the GI50 in the test with LXFL 529, with NCI-H226, in the test on OVCAR-8, in the test with RPMI-8226, in the test with SNB-19 and with SR was > 100 µM (inactive) throughout. The GI50 in the test with U-251, with UACC-257, with UACC-62 and in the test with UO-31 was > 100 µM (inactive) throughout.

In the case of `Nc1ccccc1C(=O)NC(=O)Nc1ccc(Oc2ncc(Br)cn2)c(Cl)c1`, the GI50 with 786-0 is < 0.01 µM (active); with ACHN, 0.0614 µM (active); in the test with BT-549, 2.48 µM (inactive); with COLO 205 it was < 0.01 µM (active); with HCT-15, less than 0.01 µM; in the test on HOP-62, 0.0109 µM (active). The GI50 is < 0.01 µM (active) in the test on LOX IMVI; < 0.01 µM (active) in the test with LXFL 529; < 0.01 µM (active) in the test with MCF7; 0.0472 µM (active) in the test on NCI-H226; < 0.01 µM (active) in the test on NCI/ADR-RES; 0.0119 µM (active) with OVCAR-8. For the same compound, the GI50 is 0.0182 µM (active) in the test on RPMI-8226; 0.0247 µM (active) in the test on SNB-19; < 0.01 µM (active) in the test with SR; 51.8 µM (inactive) with T47D; < 0.01 µM (active) with U-251; < 0.0259 µM (active) in the test on UACC-257. Further, the GI50 with UACC-62 was < 0.01 µM (active); in the test with UO-31, 0.014 µM (active).

On to `N#Cc1nc(Nc2cccc3ccccc23)sc1N`, for which the GI50 in the test on 786-0 is 33 µM (inactive); in the test with ACHN, 25.1 µM (inactive); with COLO 205, 24.6 µM (inactive); with HCT-15, 29.5 µM; with HOP-62 it was 33.3 µM (inactive); with LOX IMVI it was 17.3 µM (inactive). The GI50 in the test on LXFL 529 is 29.9 µM (inactive); in the test on NCI-H226, 41.8 µM (inactive); with OVCAR-8, 31.4 µM (inactive); in the test on RPMI-8226 it was 11.9 µM (inactive); in the test with SNB-19, 38.8 µM (inactive); in the test with SR, 3.05 µM (inactive). Also, the GI50 was 22.2 µM (inactive) in the test with U-251, 15.8 µM (inactive) in the test on UACC-257, 21.2 µM (inactive) in the test with UACC-62 and 12.9 µM (inactive) in the test on UO-31.

`CCOP(=O)(OCC)/C(C#N)=C/c1ccc[nH]1`: the GI50 with 786-0 is > 100 µM (inactive); in the test on ACHN, > 100 µM (inactive); in the test on COLO 205, > 100 µM (inactive); in the test on HCT-15, greater than 100 µM; with HOP-62, > 100 µM (inactive); in the test on LOX IMVI it was > 100 µM (inactive). For the same compound, the GI50 in the test on LXFL 529, in the test with NCI-H226, in the test on OVCAR-8, in the test with RPMI-8226, with SNB-19 and in the test on SR was > 100 µM (inactive) in each case. Moreover, the GI50 with U-251, with UACC-257, in the test with UACC-62 and in the test with UO-31 was > 100 µM (inactive) in each case.

On to `Cc1ccc(SC2C(C)(C)N(C(C)C)P2(=O)N(C(C)C)C(C)C)cc1` (stereo not drawn), for which the GI50 was 82.4 µM (inactive) in the test on 786-0; 15.8 µM (inactive) with ACHN; > 43.7 µM (inactive) in the test with COLO 205; 62.8 µM in the test on HCT-15; > 100 µM (inactive) in the test on HOP-62; 28 µM (inactive) with LOX IMVI. For the same compound, the GI50 was 21.3 µM (inactive) in the test with LXFL 529; > 100 µM (inactive) with NCI-H226; 45.5 µM (inactive) with OVCAR-8; 9.35 µM (inactive) in the test on RPMI-8226; 51.5 µM (inactive) in the test on SNB-19; 14.2 µM (inactive) in the test with SR. Moreover, the GI50 is > 59 µM (inactive) in the test on U-251, 16.9 µM (inactive) in the test with UACC-257, 42.1 µM (inactive) in the test with UACC-62 and 46.1 µM (inactive) with UO-31.

Turning to `CCOC(C[C@H](O)[C@H]1COC(=S)S1)OCC`, the GI50 is > 100 µM (inactive) with 786-0; > 100 µM (inactive) with ACHN; > 100 µM (inactive) in the test with COLO 205; greater than 100 µM in the test with HCT-15; > 100 µM (inactive) with HOP-62; > 100 µM (inactive) in the test on LOX IMVI. The GI50 in the test with LXFL 529, in the test on NCI-H226, in the test on OVCAR-8, in the test on RPMI-8226, in the test on SNB-19 and with SR was > 100 µM (inactive) throughout. The GI50 in the test on U-251, with UACC-257, in the test with UACC-62 and with UO-31 was > 100 µM (inactive) each time.

With `O=C(c1ccccc1)[C@H]1Nc2ccc(Cl)cc2C2c3ccccc3CC21` (stereo partly drawn), the GI50 in the test with 786-0 was 30.8 µM (inactive); in the test with ACHN, 45.2 µM (inactive); with COLO 205, 41.1 µM (inactive); in the test on HCT-15, 60 µM; in the test with HOP-62, 46.1 µM (inactive); in the test on LOX IMVI, 50.4 µM (inactive). Besides, the GI50 with LXFL 529 was 27.8 µM (inactive); in the test on NCI-H226 it was 36.7 µM (inactive); in the test with OVCAR-8 it was 53.8 µM (inactive); in the test with RPMI-8226, > 100 µM (inactive); in the test with SNB-19 it was > 100 µM (inactive); in the test on SR, 71.6 µM (inactive). Besides, the GI50 in the test on U-251 is 47.6 µM (inactive); in the test with UACC-257, 18.5 µM (inactive); in the test with UACC-62, > 10 µM (inactive); in the test with UO-31, > 100 µM (inactive).

Consider `N#Cc1ccc(Sc2ccccc2)cc1C#N`, for which the GI50 with 786-0 was 28.1 µM (inactive); with ACHN it was > 100 µM (inactive); in the test with COLO 205 it was 33.2 µM (inactive); in the test on HCT-15, 16 µM; in the test on HOP-62, 36.9 µM (inactive); in the test with LOX IMVI it was 19.9 µM (inactive). Besides, the GI50 with LXFL 529 was 59.7 µM (inactive); in the test with NCI-H226, > 100 µM (inactive); in the test with OVCAR-8 it was 31 µM (inactive); with RPMI-8226, 28.1 µM (inactive); in the test on SNB-19, 39.3 µM (inactive); with SR, 18.7 µM (inactive). For the same compound, the GI50 was 36.1 µM (inactive) with U-251, > 100 µM (inactive) in the test with UACC-257, > 100 µM (inactive) with UACC-62 and > 100 µM (inactive) in the test with UO-31.

In the case of `C/C(=N/N)c1sc(-c2nc(C)c(/C(C)=N\N)s2)nc1C`, the GI50 was > 55.6 µM (inactive) in the test on 786-0; > 100 µM (inactive) in the test on ACHN; > 46.1 µM (inactive) with COLO 205; greater than 43 µM with HCT-15; > 100 µM (inactive) in the test with HOP-62; 39.5 µM (inactive) with LOX IMVI. For the same compound, the GI50 in the test with LXFL 529 is 50.8 µM (inactive); in the test on NCI-H226, > 100 µM (inactive); in the test on OVCAR-8 it was > 86.1 µM (inactive); in the test on RPMI-8226, 35.7 µM (inactive); in the test on SNB-19 it was > 100 µM (inactive); with SR, 16.4 µM (inactive). Also, the GI50 was > 100 µM (inactive) with U-251, > 100 µM (inactive) in the test with UACC-257, > 92.7 µM (inactive) in the test with UACC-62 and > 100 µM (inactive) in the test with UO-31.

As to `O=C1OC(CC(=O)c2ccc(Cl)cc2Cl)C(Cl)=C1Cl` (stereo not drawn), the GI50 in the test with 786-0 was 21.9 µM (inactive); in the test on ACHN, > 41.1 µM (inactive); with COLO 205 it was 20.8 µM (inactive); with HCT-15 it was 29.3 µM; in the test with HOP-62 it was > 59.2 µM (inactive); in the test with LOX IMVI, 24.5 µM (inactive). The GI50 with LXFL 529 is 17.1 µM (inactive); with NCI-H226, 30 µM (inactive); in the test with OVCAR-8, 27.2 µM (inactive); in the test with RPMI-8226 it was 26.9 µM (inactive); in the test on SNB-19 it was > 49.2 µM (inactive); in the test on SR, 26.5 µM (inactive). The GI50 is 27.6 µM (inactive) with U-251, > 100 µM (inactive) in the test on UACC-257, 17 µM (inactive) in the test on UACC-62 and > 42.6 µM (inactive) in the test on UO-31.

On to `CCOC(=O)Oc1cc2c(c(OC)c1OC)-c1ccc(OC)c(=O)cc1C(NC(C)=O)CC2` (stereo not drawn), for which the GI50 in the test on 786-0 is 0.0345 µM (active); in the test with ACHN, 0.398 µM (active); in the test on COLO 205, 0.0185 µM (active); in the test on HCT-15 it was 0.252 µM; in the test with HOP-62 it was 0.0509 µM (active); in the test on LOX IMVI, 0.0153 µM (active). Besides, the GI50 in the test with LXFL 529 is < 0.0162 µM (active); in the test on MCF7, < 0.01 µM (active); in the test on NCI-H226, 0.183 µM (active); with NCI/ADR-RES, 9.33 µM (inactive); in the test with OVCAR-8, 0.0286 µM (active); in the test on RPMI-8226 it was 0.0141 µM (active). Further, the GI50 was 0.0277 µM (active) in the test with SNB-19; < 0.01 µM (active) in the test on SR; > 100 µM (inactive) in the test on T47D; 0.0212 µM (active) in the test with U-251; 0.0146 µM (active) in the test with UACC-257; 0.0156 µM (active) in the test on UACC-62. Moreover, in the test on UO-31, the GI50 was 5.35 µM (inactive).

With `C[C@]12C=CC(=O)C=C1CC[C@@H]1[C@@H]2CC[C@]2(C)OC(=O)CC[C@@H]12` [TESTOLACTONE], the GI50 with 786-0 was > 500 µM (inactive); with ACHN it was 453 µM (inactive); in the test on BT-549, 237 µM (inactive); in the test on COLO 205, 480 µM (inactive); in the test with HCT-15, greater than 488 µM; with HOP-62, > 467 µM (inactive). Moreover, the GI50 is > 492 µM (inactive) in the test with LOX IMVI; > 500 µM (inactive) in the test on LXFL 529; 457 µM (inactive) in the test with MCF7; 417 µM (inactive) in the test with NCI-H226; > 492 µM (inactive) in the test with NCI/ADR-RES; > 462 µM (inactive) in the test on OVCAR-8. Moreover, the GI50 in the test on RPMI-8226 was 450 µM (inactive); in the test on SNB-19, > 500 µM (inactive); with SR it was 318 µM (inactive); in the test with T47D it was > 337 µM (inactive); with U-251, > 500 µM (inactive); in the test with UACC-257, 389 µM (inactive). The GI50 with UACC-62 was 323 µM (inactive); with UO-31 it was 444 µM (inactive).
